Where no end group is shown, it is not given here. The star is where a group is joined. Biotin = O=C1N[C@H]2[C@H](CS[C@H]2CCCCC(=O)*)N1
Legend:
PKA [1] = molecular target: T1, PKA (Homo sapiens, UniProt P17612); conditions: 132 nM PKA, even at the highest ATP concentration applied
Protocol: The effect of ATP on the PKA-PKI binding was also evaluated using an SPR analyzer, Biacore 3000 biosensor system (Biacore, U.S.A.). The surface of a CM5 sensor chip (Biacore, Applied Biosystems, U.S.A.) was activated with N-ethyl-N′-(3-dimethylaminopropyl)carbodiimide (EDC) and N-hydroxysuccinimide (NHS), and 50 μg/mL streptavidin was applied thereto, to immobilize on the surface of sensor via an amine-coupling method. […] The mixture solutions of 132 nM PKA and varying concentrations of ATP were applied at the rate of 30 μM/min for 100 seconds, and the buffer solution was then applied for 200 seconds, to obtain sensorgrams.

PKA [2] = molecular target: T1, PKA; conditions: read-out: affinity for PKA; cited from earlier work

## Biotin-LRRAALG [biotin-Ala-kemptide]
PKA [1]
  binding of PKA to immobilized peptide (SPR): not observed
PKA [2]
  Kd: 10 µM
